{"source": "patent US3969385A", "about": "“Ethyl 10-methoxy-3,7,11-trimethyldodeca-2,4-dienoate” (Zoecon Corporation, priority 1974, dated 1976)", "assay_type_in_all_cases": "in vivo", "key": {"Philosamia cynthia eggs": {"tested_on": "Philosamia cynthia eggs", "test": "Philosamia cynthia eggs, hatch prevention", "details": "Table 1 summary", "experimental": "Philosamia cynthia eggs less than 24-hours old were removed from the colony and placed on black electrical tape, 15 eggs per tape. One microliter of acetone solution containing […] of compound was applied to each egg. The control eggs were treated only with acetone. The eggs were kept at 28°C for 10 days at which time the number of eggs hatched was observed and plotted against the dosed on semilogarithmic paper. The ID50 dose is taken from the intersection of this plotted line with the 50% hatch prevented line."}, "[1]": {"tested_on": "Tobacco budworm (Heliothis virescens) larvae", "test": "Tobacco budworm (Heliothis virescens) larvae, diet test, morphogenetic scoring", "details": "for ID50: Heliothis virescens unfed first instar larvae, compound mixed in diet, 25°, 16 hr photophase; for Heliothis ID50: Table 1 summary, in diet", "experimental": "Tobacco budworm (Heliothis virescens) larvae were reared in mass culture on a modified Van der Zandt artificial diet based on agar, lima beans, split peas, torula yeast plus vitamins, minerals and bacteriostatic additives. Compounds to be tested were mixed as acetone solutions with this diet while it was still warm and not yet solidified (7.5 ml. of medium in 15 ml. tubes). Unfed first instar larvae were collected from the mass rearing and distributed in the glass tubes (one larva per tube, 15 tubes per dose level). The tubes with larvae were then capped with a firm cotton plug and placed on racks in a culture room at 25° and 16 hr photophase (low intensity fluorescent light). The normal interval until pupation under these conditions was ca. 16 days.\nIndividual specimens were preserved in ethanol within a few days after pupation and stored until the entire series was thus preserved. The test results were then evaluated with the following scoring system: 0= normal pupa; 1=pupa of normal shape and appearance except for very minor abnormalities such as minute rudiments of larval mouthparts, larval tubercles, etc. The ultimate viability of these pupa was not investigated; 2=unviable intermediates between larvae and pupae ranging from almost perfect supernumerary larval instars (frequently with some pupal cuticle on the antennae only) to pupae with pronounced prolegs, patches of larval cuticle, etc. […] The results were added and expressed as a percentage of the possible total. ID50 doses were determined by interpolation on semilogarithmic paper. Dead larvae were generally excluded from the score, unless death was obviously a consequence of morphogenetic abnormalities and the specimens could be scored as above."}, "[2]": {"tested_on": "Greater Wax Moth (Galleria mellonella) pupae", "test": "Greater Wax Moth (Galleria mellonella) pupae, retention of pupal characters (graded-response score)", "details": "for ID50: Galleria mellonella pupae <24 h old, 1 μl acetone solution applied to mouth-parts, scored after 10 days at 31°, 50% effect level; for Galleria ID50: Table 1 summary", "experimental": "Greater Wax Moth (Galleria mellonella) pupae less than 24-hours old were collected after mature larvae from a mass colony were allowed to pupate in glass tubes treated with Siliclad solution (modification of a technique described by De Wilde et al., 1968) and then freed of the cocoon with a dilute Chlorox solution. Starvation of mature larvae was employed to produce highly synchronous pupation. One microliter of acetone solution containing 100, 10, 1, 0.1, 0.01, or 0.001μg of compound was applied to the mouth-parts of each test pupa. In each test series, the control pupae were treated only with 1 microliter of acetone. Treated pupae were allowed to develop for 10 days at 31° and then scored for both retention of pupal characters and adult emergence. For the retention of pupal characters, the following scoring system was used: 0=normal adult; 1=minor pupal rudimentary mandibles only; 2=as in 1, but also pupal cuticle patches at the base of the proboscis; 3=extensive pupal cuticle formation at base of proboscis, slight pupal characters in intersegmental membranes in legs; 4=proboscis entirely pupal, larger than normal, legs with extensive pupal zones; 5=merging pupal bands on legs, specimen with only a few adult setae, essentially \"a second pupa.\"\nThe graded-response score was calculated as a percentage of the maximum attainable (n×5) and plotted against the dose on semilogarithmic paper. The ID50 dose is taken from the intersection of this plotted line with the 50% effect level."}}, "data": [{"smiles": "CCOC(=O)C=C(C)C=CCC(C)CCC(OC)C(C)C", "note": "(stereo not shown) [ethyl 10-methoxy-3,7,11-trimethyldodeca-2,4-dienoate]", "values": [{"measurement": "Cynthia ID50", "setting": "Philosamia cynthia eggs", "result": 0.000032, "unit": "μg/egg"}, {"measurement": "ID50", "setting": "[1]", "result": 0.024, "unit": "parts per million"}, {"measurement": "Heliothis ID50", "setting": "[1]", "result": 0.024, "unit": "ppm"}, {"measurement": "ID50", "setting": "[2]", "result": 0.0030, "unit": "μg per pupa"}, {"measurement": "Galleria ID50", "setting": "[2]", "result": 0.0030, "unit": "μg/pupa"}]}, {"smiles": "CCOC(=O)C=C(C)C=CCC(C)CCCC(C)(C)OC", "note": "(stereo not shown) [ethyl 11-methoxy-3,7,11-trimethyldodeca-2,4-dienoate]", "values": [{"measurement": "Cynthia ID50", "setting": "Philosamia cynthia eggs", "result": 0.00077, "unit": "μg/egg"}, {"measurement": "ID50", "setting": "[1]", "result": 0.340, "unit": "parts per million"}, {"measurement": "Heliothis ID50", "setting": "[1]", "result": 0.340, "unit": "ppm"}, {"measurement": "ID50", "setting": "[2]", "result": 0.180, "unit": "μg per pupa"}, {"measurement": "Galleria ID50", "setting": "[2]", "result": 0.180, "unit": "μg/pupa"}]}]}
